# Values of other authors in patent publication US12037433B2, “(Co)polymers of hydrophobic monomers and methods of making and use thereof” (BASF SE, priority 2018, dated 2024).
# Legend:
# [1] = for solubility in water, measured at 20° C.: additional hydrophobic monomers
Compound,"solubility in water, measured at 20° C. [1] [g/100 g water]",Water Solubility at 20° C. [1] [mg/mL],Partitioning Coefficient n-octanol/water [log Kow at 25° C.]
C=CC=C [butadiene],0.08,,
"C=CC(=O)OCCCCCCCCCCCC [Lauryl Acrylate (LA), Lauryl Acrylate]",,0.04,6.13
"C=C(C)C(=O)OCCCCCCCCCCCC [Lauryl Methacrylate (LMA), Lauryl Methacrylate]",,0.03,6.45
C=COC(=O)C(C)(C)C [vinyl neo-pentanoate],0.08,,
C=Cc1ccccc1 [styrene],0.03,,
"C=C(C)C(=O)OC1CCCCC1 [Cyclohexyl methacrylate (CHMA), Cyclohexyl methacrylate]",,0.1,3.54
"C=C(C)C(=O)OCCCCCCCCCCCCCCCCCC [Stearyl Methacrylate (SMA), Stearyl Methacrylate]",,,9.62
"C=CC(=O)OCCCCCCCCCCCCCCCCC [Heptadecyl acrylate (C17 A), Heptadecyl acrylate]",,0.04,9.2
"C=C(C)C(=O)OCCCCCCCCCCCCCCCCC [Heptadecyl methacrylate (C17 MA), Heptadecyl methacrylate]",,0.05,6.5
"C=CC(=O)OCCCCCCCCCCCCCCCCCC [Stearyl Acrylate (SA), Stearyl Acrylate]",,,9.28
